# Columns and labels:
# Type in all cases: functional
# Staphylococcus aureus [1] = experiment: Antibacterial activity against methicillin-resistant Staphylococcus aureus 134/94 R9 assessed as zone of inhibition after 24 hrs by disk diffusion method
# Staphylococcus aureus [2] = experiment: Antibacterial activity against Staphylococcus aureus SG511 assessed as zone of inhibition after 24 hrs by disk diffusion method
# Pseudomonas aeruginosa [3] = experiment: Antibacterial activity against Pseudomonas aeruginosa BG137 B7 assessed as zone of inhibition after 24 hrs by disk diffusion method
# Mycolicibacterium vaccae = experiment: Antibacterial activity against Mycobacterium vaccae IMET 10670 assessed as zone of inhibition after 24 hrs by disk diffusion method
# Bacillus subtilis = experiment: Antibacterial activity against Bacillus subtilis ATCC 6633 assessed as zone of inhibition after 24 hrs by disk diffusion method
# Escherichia coli = experiment: Antibacterial activity against Escherichia coli SG458 assessed as zone of inhibition after 24 hrs by disk diffusion method
# Pseudomonas aeruginosa [4] = experiment: Antibacterial activity against Pseudomonas aeruginosa K799/61 assessed as zone of inhibition after 24 hrs by disk diffusion method
# Enterococcus faecalis = experiment: Antibacterial activity against vancomycin-resistant Enterococcus faecalis 1528 R10 assessed as zone of inhibition after 24 hrs by disk diffusion method
# [5] = tested on: Sporobolomyces salmonicolor; experiment: Antifungal activity against Sporidiobolus salmonicolor SBUG 549 assessed as zone of inhibition after 24 hrs by disk diffusion method
# Penicillium chrysogenum = experiment: Antifungal activity against Penicillium chrysogenum JP36 assessed as zone of inhibition after 24 hrs by disk diffusion method
Structure (SMILES),inhibition zone (IZ) (Staphylococcus aureus [1]) [mm],inhibition zone (IZ) (Staphylococcus aureus [2]) [mm],inhibition zone (IZ) (Pseudomonas aeruginosa [3]) [mm],inhibition zone (IZ) (Mycolicibacterium vaccae) [mm],inhibition zone (IZ) (Bacillus subtilis) [mm],inhibition zone (IZ) (Escherichia coli) [mm],inhibition zone (IZ) (Pseudomonas aeruginosa [4]) [mm],inhibition zone (IZ) (Enterococcus faecalis) [mm],inhibition zone (IZ) [5] [mm],inhibition zone (IZ) (Penicillium chrysogenum) [mm]
O=C(N[C@H](CO)[C@H](O)c1ccc([N+](=O)[O-])cc1)C(Cl)Cl [CHLORAMPHENICOL],0,17,24,20,29,23,24,17,,
C[C@H]1CCC[C@@]2(C)CC[C@@H](O)C[C@]12O,0,0,10,0,10,10,10,0,0,0
C[C@@H]1[C@H](O)[C@@H](C)/C=C/C=C/C=C/C=C/C=C/C=C/C=C/[C@H](O[C@@H]2O[C@H](C)[C@@H](O)[C@H](N)[C@@H]2O)C[C@@H]2O[C@](O)(C[C@@H](O)C[C@@H](O)[C@H](O)CC[C@@H](O)C[C@@H](O)CC(=O)O[C@H]1C)C[C@H](O)[C@H]2C(=O)O [AMPHOTERICIN B],,,,13,,,,,13,17
C[C@H]1C(=O)CC[C@@]2(C)CCCC[C@]12O,0,0,10,0,10,0,10,10,0,0
C[C@H]1CCC[C@@]2(C)CC[C@@H](C(C)(C)O)C[C@]12O,11,12,11,14,12,10,11,11,12,12

# Reference: ChEMBL document CHEMBL4665683, “Oxygenated Geosmins and Plant-like Eudesmanes from a Bacterial Mangrove Endophyte” (2020)
